Measurements as given in patent US20230339970A1, “CASEIN KINASE 1 DELTA MODULATORS” (priority 2020, published 2023).

Key:
[1] = target: T1, human recombinant GST cleaved CSNK1D (Homo sapiens, UniProt P48730); assay: Purified Enzyme Assay (ADP-Glo CSNK1D Kinase Assay); type: biochemical; conditions: 2 nM CSNK1D; peptide substrate 150 μM; ATP 20 μM; 45 minutes at room temperature
T1 construct: GST (cleaved yes); purchased University of Dundee clone DU 19064
Procedure, shortened: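 Percent activity derived from ADP-Glo quantification of ADP produced. Reactions: compound dose-response with human recombinant GST-cleaved CSNK1D, ATP and substrate peptide PLSRTL-pS-VASLPGL, incubated 45 min at room temperature.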

[2] = target: T2, human CSNK1D (Homo sapiens, UniProt P48730); assay: Whole Cell nBRET CSNK1D Binding Assay; conditions: living CHO cells stably expressing human CSNK1D tagged with nanoluciferase; NanoBret tracer 130 nM; 2 hours at 37 C
T2 construct: expressed in transfected cells
T2 sequence (P48730 whole entry): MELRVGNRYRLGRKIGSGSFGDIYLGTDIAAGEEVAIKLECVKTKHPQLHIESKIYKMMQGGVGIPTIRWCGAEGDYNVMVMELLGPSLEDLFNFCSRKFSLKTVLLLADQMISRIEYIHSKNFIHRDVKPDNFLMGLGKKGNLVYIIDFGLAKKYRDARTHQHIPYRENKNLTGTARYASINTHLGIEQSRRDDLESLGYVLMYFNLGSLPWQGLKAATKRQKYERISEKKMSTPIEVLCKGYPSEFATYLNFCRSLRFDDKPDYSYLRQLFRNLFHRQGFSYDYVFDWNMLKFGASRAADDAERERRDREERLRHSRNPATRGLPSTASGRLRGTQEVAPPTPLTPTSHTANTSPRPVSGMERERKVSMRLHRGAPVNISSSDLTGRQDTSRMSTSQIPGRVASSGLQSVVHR

T1 sequence (P48730 whole entry): as above

Structure (SMILES)	IC50 [1]	IC50 [2]
Cc1cc(-c2c(-c3ccc(Cl)c(F)c3)nn3c2COCC3)c2cn[nH]c2n1 [Example 73, 2-(4-Chloro-3-fluoro-phenyl)-3-(6-methyl-1H-pyrazolo[3,4-b]pyridin-4-yl)-6,7-dihydro-4H-pyrazolo[5,1-c][1,4]oxazine]	120 nM	569 nM
Fc1ccc(-c2nn3c(c2-c2ccnc4[nH]ncc24)COC2(CC2)C3)nc1 [Example 432, 2-(5-Fluoro-2-pyridyl)-3-(1H-pyrazolo[3,4-b]pyridin-4-yl)spiro[4,7-dihydropyrazolo[5,1-c][1,4]oxazine-6,1′-cyclopropane]]	8 nM	195 nM
Cc1cc(-c2c(-c3ccc(F)cc3)nn3c2COCC3(C)C)c2cn[nH]c2n1 [Example 121, 2-(4-Fluorophenyl)-7,7-dimethyl-3-(6-methyl-1H-pyrazolo[3,4-b]pyridin-4-yl)-4,6-dihydropyrazolo[5,1-c][1,4]oxazine]	14 nM	233 nM
Cc1cc(-c2c(-c3ccc(F)cc3)nn3c2CCC3)c2cn[nH]c2n1 [Example 5, 4-(2-(4-Fluorophenyl)-5,6-dihydro-4H-pyrrolo[1,2-b]pyrazol-3-yl)-6-methyl-1H-pyrazolo[3,4-b]pyridine]	1 nM	22 nM
CC1(C)Cn2nc(-c3ccc(F)cn3)c(-c3ccnc(NC(=O)c4ccccc4)c3)c2CO1 [Example 136, N-(4-(2-(5-Fluoropyridin-2-yl)-6,6-dimethyl-6,7-dihydro-4H-pyrazolo[5,1-c][1,4]oxazin-3-yl)pyridin-2-yl)benzamide]	2 nM	6 nM
Cc1nc2[nH]ncc2c(-c2c(-c3ccc(F)cn3)nn3c2OC[C@H]2C[C@H]2C3)c1F (stereo in doubt) [Example 482, (5a*R,6a*S)-3-(5-Fluoro-6-methyl-1H-pyrazolo[3,4-b]pyridin-4-yl)-2-(5-fluoropyridin-2-yl)-5a,6,6a,7-tetrahydro-5H-cyclopropa[e]pyrazolo[5,1-b][1,3]oxazepine]	8 nM	79 nM
Fc1ccc(-c2nn3c(c2-c2c(F)cnc4[nH]ncc24)CC2(C3)CC2(F)F)nc1 (single isomer, unassigned) [Example 259, (*R)-1′.1′-Difluoro-3-(5-fluoro-1H-pyrazolo[3,4-b]pyridin-4-yl)-2-(5-fluoro-2-pyridyl)spiro[4,6-dihydropyrrolo[1,2-b]pyrazole-5,2′-cyclopropane]]	79 nM	1920 nM
COc1ccc2nccc(-c3c(-c4ccc(F)cn4)nn4c3OCCC4)c2n1 [Example 190, 2-(5-Fluoro-2-pyridyl)-3-(6-methoxy-1,5-naphthyridin-4-yl)-6,7-dihydro-5H-pyrazolo[5,1-b][1,3]oxazine]	4 nM	215 nM
Fc1ccc(-c2nn3c(c2-c2ccnc4[nH]ncc24)CC(F)(F)CC3)nc1 [Example 48, 4-[5,5-Difluoro-2-(5-fluoro-2-pyridyl)-6,7-dihydro-4H-pyrazolo[1,5-a]pyridin-3-yl]-1H-pyrazolo[3,4-b]pyridine]	40 nM	924 nM
CC1COc2c(-c3ccn4nccc4c3)c(-c3ccc(F)cn3)nn2C1 (stereo not drawn) [Example 443, 2-(5-Fluoropyridin-2-yl)-6-methyl-3-(pyrazolo[1,5-a]pyridin-5-yl)-6,7-dihydro-5H-pyrazolo[5,1-b][1,3]oxazine]	30 nM	581 nM
Fc1ccc(-c2nn3c(c2-c2ccnc4[nH]ncc24)C2CC2C3)cc1 (racemic) [Example 275, (Racemic) 2-(4-Fluorophenyl)-3-(1H-pyrazolo[3,4-b]pyridin-4-yl)-3b,4,4a,5-tetrahydrocyclopropa[3,4]pyrrolo[1,2-b]pyrazole]	1 nM	9 nM
CC1COc2c(-c3ccnc4[nH]ncc34)c(-c3ccc(F)cc3)nn2C1 (stereo not drawn) [Example 191, (R S)-2-(4-Fluorophenyl)-6-methyl-3-(1H-pyrazolo[3,4-b]pyridin-4-yl)-6,7-dihydro-5H-pyrazolo[5,1-b][1,3]oxazine]	< 0.5 nM	5 nM
C[C@H]1Cn2nc(-c3ccc(F)cn3)c(-c3ccnc4[nH]ncc34)c2CO1 (single isomer, unassigned) [Example 86, (*S)-2-(5-Fluoro-2-pyridyl)-6-methyl-3-(1H-pyrazolo[3,4-b]pyridin-4-yl)-6,7-dihydro-4H-pyrazolo[5,1-c][1,4]oxazine]	29 nM	254 nM
[2H]C([2H])([2H])C1(C([2H])([2H])[2H])Cc2c(-c3c(F)c(C)nc4[nH]ncc34)c(-c3ccc(F)cn3)nn2C1 [Example 244, 5-Fluoro-4-[2-(5-fluoro-2-pyridyl)-5,5-bis(methyl-d3)-4,6-dihydropyrrolo[1,2-b]pyrazol-3-yl]-6-methyl-1H-pyrazolo[3,4-b]pyridine]	4 nM	29 nM
CC1(C)Cn2nc(-c3ccc(F)cn3)c(-c3ccnc4[nH]nc(Br)c34)c2CO1 [Example 152, 3-(3-Bromo-1H-pyrazolo[3,4-b]pyridin-4-yl)-2-(5-fluoropyridin-2-yl)-6,6-dimethyl-6,7-dihydro-4H-pyrazolo[5,1-c][1,4]oxazine]	3 nM	25 nM
COCC1(F)CCc2c(-c3c(F)c(C)nc4[nH]ncc34)c(-c3ccc(F)cn3)nn2C1 (single isomer, unassigned) [Example 308, (*S)-5-Fluoro-4-[6-fluoro-2-(5-fluoro-2-pyridyl)-6-(methoxymethyl)-5,7-dihydro-4H-pyrazolo[1,5-a]pyridin-3-yl]-6-methyl-1H-pyrazolo[3,4-b]pyridine]	6 nM	34 nM
Fc1ccc(-c2nn3c(c2-c2c(F)cnc4[nH]ncc24)CCC(F)(F)C3)cc1 [Example 280, 4-(6,6-difluoro-2-(4-fluorophenyl)-4,5,6,7-tetrahydropyrazolo[1,5-a]pyridin-3-yl)-5-fluoro-1H-pyrazolo[3,4-b]pyridine]	4 nM	19 nM
C[C@@H]1n2nc(-c3ccc(F)cn3)c(-c3ccnc4[nH]nc(Cl)c34)c2COC1(C)C (single isomer, unassigned) [Example 437, (*S)-3-(3-Chloro-1H-pyrazolo[3,4-b]pyridin-4-yl)-2-(5-fluoropyridin-2-yl)-6,6,7-trimethyl-6,7-dihydro-4H-pyrazolo[5,1-c][1,4]oxazine]	5 nM	46 nM
Cc1nc2[nH]nc(C)c2c(-c2c(-c3ccc(F)cn3)nn3c2C[C@@H]2C[C@@H]23)c1F [Example 274, (4aS,5aS)-3-(5-Fluoro-3,6-dimethyl-1H-pyrazolo[3,4-b]pyridin-4-yl)-2-(5-fluoropyridin-2-yl)-4,4a,5,5a-tetrahydrocyclopropa[4,5]pyrrolo[1,2-b]pyrazole]	5 nM	56 nM
C[C@@H]1OCc2c(-c3ccnc4[nH]ncc34)c(-c3ccc(F)cn3)nn2[C@@H]1C (single isomer, unassigned) [Example 117, (6*S,7*R)-2-(5-Fluoropyridin-2-yl)-6,7-dimethyl-3-(1H-pyrazolo[3,4-b]pyridin-4-yl)-6,7-dihydro-4H-pyrazolo[5,1-c][1,4]oxazine]	45 nM	925 nM
O=C1OCCn2nc(-c3ccc(F)cn3)c(-c3ccnc4[nH]ncc34)c21 [Example 182, 2-(5-Fluoro-2-pyridyl)-3-(1H-pyrazolo[3,4-b]pyridin-4-yl)-6,7-dihydropyrazolo[5,1-c][1,4]oxazin-4-one]	241 nM	> 10000 nM
